According to patent publication US20200188471A1 (GUILIN EIGHT PLUS ONE PHARMACEUTICAL CO., LTD., priority 2017, published 2020):
Like-named read-outs stand apart in the source and are kept apart here. No end group written: not given here.

T1: interaction of TNFR1 with TNF-α (Homo sapiens, UniProt P19438)
T1 sequence (P19438 30-211 limits assumed): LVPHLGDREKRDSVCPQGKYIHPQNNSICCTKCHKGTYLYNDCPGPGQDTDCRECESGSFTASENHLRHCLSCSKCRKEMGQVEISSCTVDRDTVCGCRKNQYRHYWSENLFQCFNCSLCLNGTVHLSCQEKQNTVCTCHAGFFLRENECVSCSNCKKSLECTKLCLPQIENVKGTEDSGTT

T2: TNFR2 (Homo sapiens, UniProt P20333)
T2 sequence (P20333 23-461): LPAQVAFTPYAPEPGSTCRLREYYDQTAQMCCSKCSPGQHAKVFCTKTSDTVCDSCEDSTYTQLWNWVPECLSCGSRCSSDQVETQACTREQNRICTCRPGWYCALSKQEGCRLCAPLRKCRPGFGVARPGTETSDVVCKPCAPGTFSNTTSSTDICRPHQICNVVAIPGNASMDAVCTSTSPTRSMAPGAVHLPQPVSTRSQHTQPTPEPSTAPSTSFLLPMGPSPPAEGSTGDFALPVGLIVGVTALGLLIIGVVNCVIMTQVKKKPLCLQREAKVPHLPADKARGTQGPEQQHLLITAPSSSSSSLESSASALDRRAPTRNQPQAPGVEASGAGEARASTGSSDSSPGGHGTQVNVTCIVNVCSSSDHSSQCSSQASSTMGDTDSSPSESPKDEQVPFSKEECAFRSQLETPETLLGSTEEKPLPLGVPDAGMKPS

T3: interaction of TNFR1 and TNF-α (Homo sapiens, UniProt P19438)
T3 sequence (P19438 30-211 limits assumed): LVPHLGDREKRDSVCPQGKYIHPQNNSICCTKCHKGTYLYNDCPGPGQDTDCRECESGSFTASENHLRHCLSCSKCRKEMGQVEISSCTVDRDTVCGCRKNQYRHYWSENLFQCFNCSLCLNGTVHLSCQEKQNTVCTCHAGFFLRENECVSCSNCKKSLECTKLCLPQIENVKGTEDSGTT

T4: TNFR1 (Homo sapiens, UniProt P19438)
T4 sequence (P19438 30-455): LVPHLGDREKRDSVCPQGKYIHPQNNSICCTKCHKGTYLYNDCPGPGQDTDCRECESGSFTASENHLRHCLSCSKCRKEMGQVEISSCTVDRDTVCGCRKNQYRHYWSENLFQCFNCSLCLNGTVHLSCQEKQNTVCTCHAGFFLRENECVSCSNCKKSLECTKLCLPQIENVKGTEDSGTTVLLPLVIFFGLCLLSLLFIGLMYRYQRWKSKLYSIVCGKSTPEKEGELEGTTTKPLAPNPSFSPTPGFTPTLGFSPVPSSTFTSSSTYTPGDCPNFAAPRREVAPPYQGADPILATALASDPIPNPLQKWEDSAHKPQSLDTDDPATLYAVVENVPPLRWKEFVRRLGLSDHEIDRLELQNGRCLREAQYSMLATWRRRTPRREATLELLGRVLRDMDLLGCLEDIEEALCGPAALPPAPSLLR


Tests used:
TNF-α [1] = biological target: T5, TNF-α (Homo sapiens, UniProt P01375); assay: BIAcore (SPR) interaction with TNF-α; assay type: binding
[2] = biological target: T1, interaction of TNFR1 with TNF-α; assay: BIAcore (SPR) competitive inhibition between TNF-α and TNFR1; assay type: binding
TNF-α [3] = biological target: T5, TNF-α; assay: MST interaction with TNF-α; assay type: binding; conditions: fluorescently labeled TNF-α
TNFR2 [4] = biological target: T2, TNFR2; assay: MST interaction with TNFR2; assay type: binding
[5] = biological target: T3, interaction of TNFR1 and TNF-α; assay: MST competitive inhibition between TNF-α and TNFR1; assay type: binding
From the text: Calculate the KD value by software. The changes of TNF-α saturation concentration, response amplitude and KD value before and after Hydrostatin-SN10 were compared.

CIA mice [6] = assay: Arthritis index in type II bovine collagen-induced arthritis (CIA) mice; assay type: in vivo, DBA/1 mice; conditions: i.p. 1600 ug/kg once a day for 18 days, vs model group
Procedure: (§1) After 3 days of adaptation, DBA/1 mice were weighed and began to model. Six were randomly selected as the normal group, and the rest were the experimental group.
(§2) Day 0: Take bovine type IT collagen (4 mg/ml) and vortex and mix with an equal volume of CFA (4 mg/ml). It is better to not disperse on the water, and 100 ul/head is injected intradermally into the tail of the mouse.
(§3) Day 21: Take bovine type II collagen (4 mg/ml) and vortex mixed with an equal volume of IFA (4 mg/ml) until the droplets are not dispersed on the water. The mice are injected intradermally with 100 ul/head. On the 30th day, the model was successfully established. […] The drug was administered by injection once a day for 18 days.
(§4) One-Way ANOVA statistical analysis of the data using Graphpad Prism 5 was considered statistically significant at P<0.05. “*” indicates P<0.05, “**” indicates P<0.01, and “***” indicates P<0.001.

CIA mice [7] = assay: Collagen-specific antibody and inflammatory factors in serum of CIA mice (ELISA, multi-factor kit); assay type: in vivo, DBA/1 mice; conditions: 1600 ug/kg i.p., vs model group
Procedure: as §1, §2, §3, §4
The ELISA kit and multi-factor kit were used to determine the collagen-specific antibody Ig G and pro-inflammatory factors IL-17, TNF-α, IL-6, IFN-γ and anti-inflammatory factor IL-10 in the serum of each group of mice. Compared with the normal control group, the collagen-specific antibody Ig G and the pro-inflammatory factors IL-17, TNF-α, IL-6, IFN-γ in the serum of the model group mice.

CIA mice [8] = assay: Micro-CT detection of bone destruction in CIA mice; assay type: in vivo, DBA/1 mice; conditions: for trabecular bone damage: Micro-CT of trabecular bone; for trabecular bone damage / degree of bone destruction, hind limbs: CIA mice; for trabecular bone damage / bone area/tissue volume (BS/TV) / bone mineral density (BMD) / bone surface area/bone volume (BS/BV) / bone volume/tissue volume (BV/TV) / number of trabeculae (Th.N) / trabecular model factor (Tb.pf) / trabecular separation (Tb.sp) / trabecular thickness (Tb.Th): vs model group; for degree of bone destruction, hind limbs / bone area/tissue volume (BS/TV) / bone mineral density (BMD) / bone surface area/bone volume (BS/BV) / bone volume/tissue volume (BV/TV) / number of trabeculae (Th.N) / trabecular model factor (Tb.pf) / trabecular separation (Tb.sp) / trabecular thickness (Tb.Th): Micro-CT; for degree of bone destruction, hind limbs: peptides 1600 ug/kg, infliximab 4 mg/kg i.p.; for bone area/tissue volume (BS/TV) / bone mineral density (BMD) / bone surface area/bone volume (BS/BV) / bone volume/tissue volume (BV/TV) / number of trabeculae (Th.N) / trabecular model factor (Tb.pf) / trabecular separation (Tb.sp) / trabecular thickness (Tb.Th): trabecular bone
CIA mice [9] = assay: Joint histology of CIA mice (HE staining, TNF-α immunohistochemistry, TRAP staining); assay type: in vivo, DBA/1 mice; conditions: for osteoclasts in joints / tartrate-resistant phosphatase (TRAP) in joints: TRAP staining; for osteoclasts in joints / tartrate-resistant phosphatase (TRAP) in joints / amount of expression of TNF-α in the joints: vs model group; for amount of expression of TNF-α in the joints: immunohistochemistry
CIA mice [10] = assay: Treg (Foxp3) and Th1, Th2, Th17 expression in T cells/splenocytes of CIA mice; assay type: in vivo, DBA/1 mice; conditions: vs model group; for expression level of Foxp3 in Treg cells: CIA mice; for expression level of IFN-γ (Th1) / expression level of IL-17 (Th17) / expression of IL-4 (Th2): splenocytes of CIA mice
Procedure: as §1, §2, §3, §4
Studies have shown that Th17 cells secrete high levels of IL-17, which stimulates the secretion of matrix metalloproteinase-1, IL-1β by FLS. TNF-α and other co-inducing NF-κB receptor activator ligands are involved in the bone destruction of RA and inflammatory damage in tissues. The effect was observed by measuring the expression of helper T cells in splenocytes.

TNFR1 [11] = biological target: T4, TNFR1; conditions: read-out: binding capacity with TNFR1 (KD); SPR; from Hailong Jiang 2015 master dissertation of the inventors' group; cited from earlier work
TNFR1 [12] = assay: MST, fluorescently labelled TNFR1, TNF-α titrated, no SN10
TNFR2 [13] = assay: MST, fluorescently labelled TNFR2, TNF-α titrated, no SN10
TNFR2 [14] = assay: MST, fluorescently labelled TNFR2, TNF-α titrated in the presence of 100 µM SN10; apparent KD
TNF-α [15] = assay: MST, fluorescently labelled TNF-α, TNFR1 titrated, no SN10
TNFR1 [16] = biological target: TNFR1
TNFR1 [17] = biological target: TNFR1; remark: listed apart in the source
TNFR1 [18] = assay: BIAcore SPR, TNFR1 coated on CM-5 chip, peptide injected
TNFR1 [19] = assay: MST, fluorescently labelled TNFR1 with an SN10 dilution series

Molecule	content of IFN-γ in serum (CIA mice [7])	content of IL-6 in serum (CIA mice [7])	content of IL-17 in serum (CIA mice [7])	content of TNF-α in serum (CIA mice [7])	content of anti-inflammatory factor IL10 in serum (CIA mice [7])	content of collagen-specific antibody Ig G in serum (CIA mice [7])	trabecular bone damage (CIA mice [8])	degree of bone destruction, hind limbs (CIA mice [8])	bone area/tissue volume (BS/TV) (CIA mice [8])	bone mineral density (BMD) (CIA mice [8])	bone surface area/bone volume (BS/BV) (CIA mice [8])	bone volume/tissue volume (BV/TV) (CIA mice [8])	number of trabeculae (Th.N) (CIA mice [8])	trabecular model factor (Tb.pf) (CIA mice [8])	inflammatory cell infiltration (CIA mice [9]; HE staining of joint)	joint structure (CIA mice [9]; HE staining of joint)	expression level of Foxp3 in Treg cells (CIA mice [10])	expression level of IFN-γ (Th1) (CIA mice [10])	expression level of IL-17 (Th17) (CIA mice [10])	expression of IL-4 (Th2) (CIA mice [10])	further results
H-DEQHLETELH [Hydrostatin-SN10]	significantly reduced	significantly reduced	significantly reduced	significantly reduced	Significantly increased	significantly reduced	significantly reduced bone damage	significantly reduced the degree of bone destruction	significantly up-regulated	significantly up-regulated	significant down	significantly up-regulated	significantly up-regulated	significant down	more severe inflammatory cell infiltration	intact joint structure	significantly increased	significantly down-regulated	significantly down-regulated	up-regulated	binding to TNF-α (TNF-α [1]): does not bind; binding to TNF-α (TNF-α [1]; listed as SN10): no binding; competitive inhibition of the interaction of TNFR1 with TNF-α [2]: competitively inhibits; binding to TNF-α (TNF-α [3]): not binding; binding to TNF-α (TNF-α [3]; listed as SN10): no binding; binding to TNFR2 (TNFR2 [4]; fluorescently labeled TNFR2): not binding; binding to TNFR2 (TNFR2 [4]; fluorescently labeled TNFR2, listed as SN10): no binding; competitive inhibition of the interaction of TNFR1 and TNF-α [5]: competitively inhibit; arthritis index (CIA mice [6]): reduced; trabecular separation (Tb.sp) (CIA mice [8]): significant down; trabecular thickness (Tb.Th) (CIA mice [8]): significantly up-regulated; synovial hyperplasia (CIA mice [9]; HE staining of joint): severe synovial hyperplasia; osteoclasts in joints (CIA mice [9]): reduced osteoclasts; tartrate-resistant phosphatase (TRAP) in joints (CIA mice [9]): reduced; amount of expression of TNF-α in the joints (CIA mice [9]): reduced; Kd (TNFR1 [11]): ~2800 nM
PEG-SN10: Hydrostatin-SN10 modified by mPEG2000, carboxyl of mPEG2000 connected to free amino group of N-terminal aspartic acid (mPEG2000-DEQHLETELH)	significantly reduced	significantly reduced	significantly reduced	significantly reduced	Significantly increased	significantly reduced	significantly reduced bone damage	significantly reduced the degree of bone destruction	significantly up-regulated	significantly up-regulated	significant down	significantly up-regulated	significantly up-regulated	significant down	weak inflammatory cell infiltration	complete joint structure	significantly increased	significantly down-regulated	significantly down-regulated	up-regulated	trabecular separation (Tb.sp) (CIA mice [8]): significant down; trabecular thickness (Tb.Th) (CIA mice [8]): significantly up-regulated; joint damage (CIA mice [9]; HE staining of joint): significantly weakened; osteoclasts in joints (CIA mice [9]): reduced osteoclasts; tartrate-resistant phosphatase (TRAP) in joints (CIA mice [9]): reduced; amount of expression of TNF-α in the joints (CIA mice [9]): reduced
TNF-α (ligand)	–	–	–	–	–	–	–	–	–	–	–	–	–	–	–	–	–	–	–	–	Kd (TNFR1 [12]): 116 nM; Kd (TNFR2 [13]): 328 nM; Kd (TNFR2 [14]): 384 nM
TNFR1 (receptor)	–	–	–	–	–	–	–	–	–	–	–	–	–	–	–	–	–	–	–	–	Kd (TNF-α [15]): 2.84 nM
infliximab: anti-TNF-α monoclonal antibody, positive drug [reference compound]	–	–	–	–	–	–	significantly reduced bone damage	significantly reduced the degree of bone destruction	–	–	–	–	–	–	weak inflammatory cell infiltration	complete joint structure	significantly increased	significantly down-regulated	significantly down-regulated	up-regulated	joint damage (CIA mice [9]; HE staining of joint): significantly weakened
DEQHLETELH (modifications not checked) [selective TNFR1 antagonist peptide Hydrostatin-SN10]	–	–	–	–	–	–	–	–	–	–	–	–	–	–	–	–	–	–	–	–	Kd (TNFR1 [16]): 2780 nM; Kd (TNFR1 [17]): 2830 nM; Kd (TNFR1 [18]): 2800 nM; Kd (TNFR1 [19]): 2800 nM
